From patent US20110008279A1, “Methods and Compositions Relating to Adhesins as Adjuvants” (priority 2005, published 2011)
Entries after “also recorded” stand apart in the source; their conditions may differ.

Tests used:
[1] = system: mo-DCs; test: Cytokine and chemokine secretion by mo-DCs (Bio-Plex, ELISA); type: cell-based, human; conditions: for IL-12 released on co-stimulation with R-848: NadA 1.5 μM + R-848 1 μM
Description: Reagents used were tested for low endotoxin contamination using the Limulus amoebocyte assay (Sigma). Dendritic cells were generated from human peripheral blood mononuclear cells (PBMC) as described previously. In brief, PBMC were isolated from buffy coats of healthy donors by Ficoll-Paque Plus density gradient centrifugation (Amersham Pharmacia Biotech AB). Separate monocyte and T-cell fractions were obtained from PBMCs by Percoll density gradient centrifugation (Amersham Pharmacia Biotech AB). Residual T and B cells were removed from monocyte fraction by plastic adherence of 3×10^6 cells per well in 6-well plates (Costar) resulting in CD14^+ monocyte populations of >95% purity (determined by flow cytometry). DC were obtained by 6-d culture adherent monocytes in medium with 20 ng/ml IL-4 (5×10^6 units/mg, Peprotech) and 50 ng/ml GM-CSF (1×10^7 units/mg, Peprotech). Cytokines were added again on day 4 in RPMI-1640 medium supplemented with 10% FBS. Following this procedure more than 90% cells belonged to the immature DC phenotype (CD1a^+, HLADRlow, CD14^−, CD83^−, CD86^low, CD80^low). On day 5 cells were treated with nothing or with recombinant human IFN-γ (1000 U/ml) for 18 h before stimulation with NadA (0.0375-5 μM) or LPS (1 μg/ml). After 24 h cells were harvested and analysed. Culture supernatants were collected frozen in liquid nitrogen and conserved at −80° C. for cytokine analysis.
The antibody pairs used, directed against different non-competing epitopes of a given cytokine, were purchased from BioRad. Calibration curves from recombinant cytokine standard were prepared with four-fold dilution steps in RPMI-1640 medium containing 10% FBS. Assays were carried out in 96-well sterile pre-wetted filter plates at room temperature and protected from light. A mixture containing 5000 microspheres per cytokine was incubated together with standard or sample in a final volume of 50 μl for 30 min, under continuous shaking (300 rpm). After three washes by vacuum filtration with Bio-Plex washing buffer a cocktail of biotinylated antibodies diluted in Bio-Plex detection antibody diluent was added (25 μl to each well). After a 30 minutes incubation and washing, Streptavidin-PE diluted in Bio-Plex Assay buffer was added (50 μl per well). At the end of 10 minutes incubation under continuous shaking and after washing the fluorescence intensity of the beads was measured in a final volume of 125 μl of Bio-Plex assay buffer. Data analysis was done with Bio-Plex Manager software using a five-parametric-curve fitting. The detection limits were […].
IL12(p40) was measured by capture enzyme-linked immunosorbent assay (ELISA) with antibody pairs and cytokine standard purchased from Bender MedSystems. The concentrations of IL12(p40) in the cell-free supernatants were determined with ELISA kits according to the manufacturer's instructions. The detection limit of the assays was […].

[2] = system: allogenic CD4+ naïve T lymphocyte; test: Allogenic mixed leukocyte reaction, naive CD4+ T-cell proliferation; type: cell-based, human
Description: Allogenic mixed leukocyte reaction was performed with irradiated (3000 rads from a ^137Cs source) mo-DC and purified allogenic T cells. […], LPS 1 μg/ml (positive control) and non stimulated DC (negative control) pretreated or not with IFN-γ 1000 U/ml were washed and cultured with allogenic CD4+ naïve T lymphocyte (0.3×10^5 cells/well) for 5 days at 37° C. in a humidified CO2 incubator in round-bottom 96-well microtiter plates (Costar). Proliferation was measured by pulse-labelling triplicate wells for 6 h with 1 μCi of 3H-Thymidine/well (Amersham Biosciences). Negative controls included T naive cells incubated or DC incubated alone.
^3H-Thymidine incorporation was measured by harvesting cells onto glass fiber filter paper (Pall Corporation, Life Sciences) using a 96-well semiautomatic cell harvester (Multiwash 2000, Dynatech) and counting by liquid scintillation in a […] (Wallac 1409 liquid scintillation counter).

[3] = system: alternative pathway in the complement system; test: Bactericidal assay, complement alternative pathway (NHS, Mg2+/EGTA, E. coli-pET); type: biochemical, human; conditions: 3 μM, control E. coli-pET
Description: Complement activation by the alternative pathway was also investigated. […] The susceptibility to complement-mediated lysis was determined by incubating E. coli-NadA and E. coli-pET with 0-75% NHS at 37° C. for 15 min under agitation. The number of surviving bacterial cells was measured by serial agar plating and colony counting.

[4] = system: human monocytes; test: Long-term differentiation of monocytes, surface markers; type: cell-based; conditions: culture up to 7 days
Description: (§1) In order to evaluate the possible long-term, differentiation effect of NadA, adherent monocytes were treated with medium alone, NadAΔ351-405 or E. coli LPS and cells were cultured for seven days. At day 4 the agonists were added again to ensure a constant stimulation. Cell morphology was monitored by light microscopy after 1, 2, 3 and 7 days. […] NadAΔ351-405 thus induces both alteration cell morphology and distribution, this is a good indicator of monocyte activation and differentiation.
The long-term, differentiation effect of NadAΔ351-405 on monocytes was further investigated by measuring the expression of the antigen presentation marker MHC-II, co-stimulatory molecules CD80 and CD86 and cell-specific molecules: CD14 (monocyte), CD16 (macrophage) and CD1a (Dendritic cell).

[5] = system: human monocytes; test: Long-term morphology of monocytes (light microscopy); type: cell-based
Description: as §1

[6] = after IFN-γ priming, 24 hours, NadAΔ351-405 1 μM

NadAΔ351-405
IL-12 released on co-stimulation with R-848 ([1]; after IFN-γ priming): 45 ng/mL | IL-12 released on co-stimulation with R-848 ([1]; no IFN-γ priming): 2 ng/mL | increase of IL-12 release by IFN-γ priming ([1]; NadA + R-848): 20 fold | IL-12p70 secretion, dose response ([1]; absence of IFN-γ priming, up to 5 μM NadA): undetected | IL12-p40 maximal secretion relative to LPS ([1]; after IFN-γ priming): ~2% | IL-12p70 secretion level relative to LPS ([1]; after IFN-γ priming): < 2% | IL-12p70 secretion, dose response ([1]; after IFN-γ priming): reached a plateau below 1 μM NadA | IL-6 production relative to maximal LPS production [1, 6]: ~24% | TNFα production relative to maximal LPS production [1, 6]: ~24% | NadA concentration at which IL-6, TNFα and IL-8 were evident ([1]; non-primed cells): higher than 1 μM | IL-8 secretion relative to that induced by LPS ([1]; with and without IFN-γ priming): ~24% | IL-10 production ([1]; with or without IFN-γ priming, up to 5 μM NadA): Under no condition in this example was NadA able to induce IL-10 production; also recorded: undetectable | T lymphocyte activation by mo-DCs ([2]; absence of IFN-γ priming, 1 μM): not able to induce a mo-DC phenotype competent for T lymphocyte activation | T cell proliferation relative to LPS-matured mo-DCs ([2]; mo-DCs primed with INFγ then stimulated with NadA): 30-40% | effect on the alternative pathway [3]: partially inhibit | CD1a expression [4]: not increased | CD14 expression [4]: steadily increased on days two and three | CD16 expression [4]: increased more intensely than in the control cells in the first three days | CD80 expression [4]: not over-expressed | CD86 expression [4]: increased more intensely than in the control cells in the first three days | HLA-DR surface expression [4]: reached a maximal expression level on day three | cell morphology ([5]; 3-day incubation): became elongated and tended to cluster | number of surviving cells with respect to the control ([5]; 7 culture days): greatly increased
